The values below come from patent US11129835B2, “Methods and compositions for the inhibition of PIN1” (Beth Israel Deaconess Medical Center, Inc., priority 2012, dated 2021).

Square brackets hold non-standard residues; d marks the D form. Peptide text beside a SMILES is read from it. pT = C[C@@H](OP(=O)(O)O)[C@H](N)C(=O)O; 2Nal = N[C@@H](Cc1ccc2ccccc2c1)C(=O)O; Bta = N[C@@H](Cc1csc2ccccc12)C(=O)O; Pip = O=C(O)[C@@H]1CCCCN1

For assay [1], the target named is T1, full length Pin1 (Homo sapiens, UniProt Q13526).
T1 construct: FP-HTS in a 384-well plate format with full length Pin1
T1 sequence (Q13526 whole entry): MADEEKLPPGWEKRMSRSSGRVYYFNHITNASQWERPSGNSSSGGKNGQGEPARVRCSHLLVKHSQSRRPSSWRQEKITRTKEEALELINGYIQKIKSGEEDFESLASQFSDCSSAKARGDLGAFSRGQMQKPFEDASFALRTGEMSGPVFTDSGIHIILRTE
Description: single-step fluorescence polarization-based displacement assay (FP-HTS), 384-well, HF488 probe. It is filed as binding. The conditions noted are these: for Pin1 inhibition in the FP assay: cis-RA compared with trans-RA. The protocol:
A high-throughput screen for identifying Pin1 inhibitors was developed using a single-step fluorescence polarization-based displacement assay (FP-HTS).
The FP-HTS with a 5 nM probe and 200 nM Pin1 was used to conduct a pilot screen on a selected set of chemical libraries.
(§1) The anti-cancer effect of RAs was examined to determine whether it depends on RAR in the breast cancer cells.

The target in assay [2] is T2, Pin1 (Homo sapiens, UniProt Q13526). As to the kind of experiment: PPIase assay. It is filed as biochemical. The source says: The anti-cancer effect of RAs was examined to determine whether it depends on RAR in the breast cancer cells. […] In the PPIase assay, Pin1 activity was blocked by either cis- or trans-RA in a dose-dependent manner.
T2 sequence (Q13526 whole entry): as above
For assay [3], the system named is T47D. Description: cell viability of breast cancer cell lines. It counts as cell-based. The source says:
(§2) This discrepancy between cell lines was correlated with the RAs' ability to suppress Pin1 expression. Pin1 level was decreased by treatment of RAs in drugs-responsive SKBR3 and T47D, but not in drugs-irresponsive normal cells, MCF10A, in which Pin1 target protein, cyclin D1, served as biomarker of in vivo Pin1 activity.

Assay [4] concerns SKBR3. Description: cell viability of breast cancer cell lines. It counts as cell-based.
Excerpt: as §2

For assay [5], the system named is MCF10A. Description: cell viability, normal cell line. It is filed as cell-based.
Excerpt: as §2

The target in assay [6] is Pin1 and DAPK1 (Homo sapiens, UniProt Q13526). As to the kind of experiment: association between Pin1 and DAPK1. It is filed as binding.
Chain of Pin1 and DAPK1 (Q13526 whole entry): as above
For assay [7], the system named is breast cancer cells. Description: RARa knockdown rescue of cis-RA-mediated cell death. It is filed as cell-based.
Excerpt: as §1

For assay [8], the system named is mouse embryonic fibroblast (WT MEF, Pin1 KO MEF). As to the kind of experiment: trans-RA-mediated cell viability in WT and Pin1 knockout MEF. It counts as cell-based. The text has this:
To further confirm this premise, wild-type mouse embryonic fibroblast (WT MEF) and Pin1 knockout MEF (Pin1 KO MEF) were used to test trans-RA-mediated cell viability.

Assay [9] has as its system Pin1 K63A, S67E, R68/69A, H59A or S71E. Description: trans-RA binding to Pin1 point mutants.
Assay [10] has as its target T2, Pin1. As to the kind of experiment: Pin1 fluorescence polarization competition assay with Tamra-probe (secondary). The conditions noted are these: for Emax: read-out: Tamra Secondary Efficacy. A general note: Fluorescence polarisation rises when a labelled molecule tumbles more slowly, as on binding a larger partner.
Description: An assay was developed for the identification of inhibitors of Pin1. […] Candidate compounds were screened in a concentration-titration series (e.g., 57 μM to 0.7 nM).
(§3) Pin1 (0.6 μM) was dispensed into black, solid 1536-well plates (32 rows by 48 columns) at 2 μL/well in Pin1 buffer (10 mM HEPES (pH 7.5), 10 mM NaCl, 0.01% Tween20, 1 mM DTT, and 1% glycerol). Next, 23 nL of compound or DMSO was delivered to each well using a pin tool (tip wash sequence: DMSO, IPA, MeOH, 3 s vacuum dry). Two μL of Pin1-1b-HiFluor488 peptide in buffer (10 mM HEPES (pH 7.5), 10 mM NaCl, 0.01% Tween20, 1 mM DTT, and 1% glycerol, 0.02 μM Pin1-1b-HiFluor488) or DMSO was then dispensed to each well using a pin tool (tip wash sequence: DMSO, IPA, MeOH, 3 s vacuum dry), and plates were incubated at room temperature for 10 min (Table 2). Each plate included controls with no candidate inhibitory compound (32 wells), with unlabeled Pin1-1c titration (3.5 mM to 0.020 mM in a 1:2 dilution series including 2 replicates per concentration; 32 wells), and without Pin1 (64 wells).
(§4) The fluorescence polarization signal of each well was measured on a ViewLux® plate reader using a 480/20 nm excitation filter and 540/25 nm S and P emission filters with a 20 second exposure with 2× binning (Table 2). Percent inhibitory activity was determined from corrected fluorescence polarization values.
(§5) Concentration-response curves were fitted to the signals arising from the resulting fluorescence polarization. The concentration-effect curves were then classified based on curve quality (r^2), response magnitude, and degree of measured activity. Compounds were subsequently categorized based on their curve class.
A further secondary assessment was accomplished by replacing the HiFluor-488-labeled probe with Tamra-probe, a red-shifted fluorophore.
In assay [11] the target is T2, Pin1. Description: confirmatory Pin1 fluorescence polarization competition assay (Alexa488 reconfirmed).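 As to all read-outs here: Pin1 competition with a HiFluor488-labelled peptide probe, read as fluorescence polarization after 10 min at room temperature.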 Conditions: for Emax: read-out: Alexa488 Reconfirmed Efficacy.
Description: (§6) The goal of this assay was to identify small-molecule inhibitors of Pin1 using a fluorescence polarization competition assay (FIG. 1). […] Candidate compounds were screened in a concentration-titration series (e.g., 57 μM to 0.7 nM).
as §3, §4, §5
The target of assay [12] is T2, Pin1. As to the kind of experiment: Pin1 fluorescence polarization competition assay, primary qHTS (HiFluor-488 / Alexa488 probe).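 Also: Pin1 protein with fluorescent peptide probe, compound displacement read by fluorescence polarization, percent inhibition derived from corrected polarization values, concentration-response curves in 1536-well format.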
Description: as §6, §3, §4, §5
Curves showing change polarized fluorescence may be categorized into 5 classes. Class 1 includes complete curves, having 2 asymptotes and an r^2 value of ≥0.9, with an efficacy of either >80% (class 1.1) or ≤80% (class 1.2). Class 1 curves may also be classified as noisy curves when efficacy is >80% and r^2<0.9 (class 1.3) or when efficacy is ≤80% and r^2<0.9 (class 1.4). Class 2 includes incomplete curves having 1 asymptote and an r^2 value of either >0.9 (subclass a) or <0.9 (subclass b), with an efficacy of either >80% (class 2.1) or ≤80% (class 2.2). Class 2 curves may also be classified as noisy curves when efficacy is >80% and r^2<0.9 (class 2.3) or when efficacy is ≤80% and r^2<0.9 (class 2.4). Class 3 includes single point activity curves having 1 asymptote and an efficacy >3 SD from the mean activity of the sample field at the highest tested concentration. […] A fifth class captures any curves not otherwise classified (FIG. 4).
Setting [13] is: Alexa488 Primary Potency, primary qHTS.
Where [14] appears, read: Average HTS Potency, average over Alexa488 primary, Alexa488 reconfirmed and Tamra secondary assays.
Where [15] appears, read: read-out: Alexa488 Primary Efficacy.

Regarding `C[C@@H](OP(=O)(O)O)[C@H](NC(=O)[C@@H](N)Cc1csc2ccccc12)C(=O)N1CCCC[C@H]1C(=O)N[C@@H](Cc1ccc2ccccc2c1)C(=O)O` [pTide, Bth-L-phos.Thr-Pip-Nal] (H-[Bta][pT][Pip][2Nal]-OH; N-terminus and C-terminus assumed), the “displacement of HF488 probe from Pin1” value in assay [1] was “displaced HF488 probe from Pin1”. Moreover, in assay [1] (four residue core structure (pTide) of the HF488 fluorescent probes), the dissociation constant (Kd) (as a rule, a measure of binding affinity in units of concentration) came out at 0.258 µM.

In the case of `CC1=C(/C=C/C(C)=C/C=C/C(C)=C\C(=O)O)C(C)(C)CCC1` [cis-RA, 13-cis-retinoic acid], the “Pin1 activity in the PPIase assay” value in assay [2] is “blocked”. Also, the “IC50, cell viability” value in assay [3] and in assay [4] was “nano-molar range” in each case. Further, in assay [5], the cell viability entry was “remained unaffected”. The “association between Pin1 and DAPK1” value in assay [6] was “blocked the association between Pin1 and DAPK1 in a dose-dependent manner”. The “cell death after RARa knockdown” value in [7] is listed as “only partially rescue”. The “pilot screen hit ranking by Z-score” value in [1] (5 nM probe and 200 nM Pin1) was “top inhibitory chemical”. For the same molecule, the “Pin1 inhibition in the FP assay” value in [1] is listed as “eventually catch up with trans-RA in the long-term incubation with Pin1”.

As for `CC1=C(/C=C/C(C)=C/C=C/C(C)=C/C(=O)O)C(C)(C)CCC1` [trans-RA, all-trans retinoic acid], in assay [2], the “Pin1 activity in the PPIase assay” value is “blocked”. Moreover, the “IC50, cell viability” value in assay [3] and in assay [4] was “nano-molar range” in each case. Besides, the cell viability result in assay [5] is “remained unaffected”. In assay [6], the “association between Pin1 and DAPK1” value was “blocked the association between Pin1 and DAPK1 in a dose-dependent manner, with trans being more potent”. Besides, the “Pin1 inhibition in the FP assay” value in [1] is “even more prominent Pin1 inhibition than cis-RA”. The “cell viability, Pin1 KO MEF versus WT MEF” value in assay [8] was “Pin1 KO MEF was more resistant to trans-RA than WT MEF”. The “cell viability, Pin1 KO MEF re-expressing Pin1” value in assay [8] (stably expressing WT Pin1 or W34 K63A Pin1 mutant) is “Pin1 KO MEF stably expressing WT Pin1, but not W34 K63A Pin1 mutant, enabled cells to re-sensitize trans-RA”. The “binding to Pin1 point mutants” value in assay [9] is listed as “completely or significantly abolished”.

As to `NS(=O)(=O)c1cc(C(=O)NC2CCSc3ccccc32)ccc1Cl` (centres unmarked) [Compound 11], the IC50 (as a rule, the concentration that inhibits the measured activity by half) in [10] was 4 µM; in assay [11] it was 3 µM; in [12] (setting [13]), 3 µM; in assay [12] (setting [14]) it was 3 µM. The Emax in assay [10] turned out to be 91%; in assay [11] it was 93%; in assay [12] (setting [15]), 65%; in [12] (read-out: Average HTS Efficacy), 83%. The “Alexa488 Primary Curve Class” value in [12] (primary qHTS) is reported as 1.2 (≤80% (class 1.2)).

In the case of `O=C(O)C1Nc2c(O)cc(Cl)c([N+](=O)[O-])c2C2C=CCC12` (centres unmarked) [Compound 2], the IC50 in assay [10] came out at 3 µM; in assay [11], 2 µM; in assay [12] (setting [13]) it was 7 µM; in assay [12] (setting [14]) it was 4 µM. Further, the “Tamra Secondary Curve Class” value in assay [10] (Tamra-probe) was 1.2 (≤80% (class 1.2)). The Emax in assay [10] turned out to be 69%; in assay [11], 89%; in assay [12] (setting [15]), 86%; in assay [12] (read-out: Average HTS Efficacy) it was 81%.

With `C=CCOc1ccc(C(c2c(C(=O)O)[nH]c3ccccc23)c2c(C(=O)O)[nH]c3ccccc23)cc1` [Compound 46], the IC50 in assay [10] stood at 21 µM; in [11] it was 27 µM; in assay [12] (setting [13]) it was 43 µM; in assay [12] (setting [14]), 30 µM. Besides, the “Tamra Secondary Curve Class” value in assay [10] (Tamra-probe) is recorded as 2.2 (≤80% (class 2.2)). Further, the Emax was 78% in assay [10], 84% in assay [11], 82% in [12] (setting [15]) and 81% in [12] (read-out: Average HTS Efficacy). Besides, in assay [11] (confirmatory retest), the “Alexa488 Reconfirmed Curve Class” value is listed as 2.2 (≤80% (class 2.2)). Besides, the “Alexa488 Primary Curve Class” value in assay [12] (primary qHTS) is recorded as 2.2 (≤80% (class 2.2)).

For the molecule `Cc1cc(C(=O)NCc2ccc(C(=O)O)o2)c(C)o1` [Compound 33], the IC50 was 10 µM in assay [10], 7 µM in [11], 48 µM in assay [12] (setting [13]) and 21 µM in [12] (setting [14]). In addition, in assay [10] (Tamra-probe), the “Tamra Secondary Curve Class” value is given as 2.2 (≤80% (class 2.2)). Besides, the Emax in assay [10] amounted to 70%; in assay [11], 84%; in [12] (setting [15]), 20%; in [12] (read-out: Average HTS Efficacy), 58%. The “Alexa488 Reconfirmed Curve Class” value in assay [11] (confirmatory retest) was 2.2 (≤80% (class 2.2)). Also, the “Alexa488 Primary Curve Class” value in [12] (primary qHTS) is reported as 1.2 (≤80% (class 1.2)).

Regarding `O=C(O)c1cccc2c1NC(C(=O)O)C1CC(Sc3ccccc3[N+](=O)[O-])C(Cl)C21` (centres unmarked) [Compound 3], in assay [10] (Tamra-probe), the “Tamra Secondary Curve Class” value is reported as 1.2 (≤80% (class 1.2)) and the “Tamra Secondary Efficacy” value was found to be 72 % Inh. In assay [11] (confirmatory retest), the “Alexa488 Reconfirmed Curve Class” value was 1.2 (≤80% (class 1.2)) and the “Alexa488 Reconfirmed Efficacy” value was determined as 61 % Inh. In addition, in [12] (average over Alexa488 primary, Alexa488 reconfirmed and Tamra secondary assays), the “Average HTS Efficacy” value is reported as 71 % Inh. The “Alexa488 Primary Efficacy” value in assay [12] (primary qHTS) is given as 80 % Inh.
